{"source": "patent US12552783B2", "about": "“Modulators of proteolysis and associated methods of use” (Arvinas Operations, Inc., priority 2018, dated 2026)", "target": "KRas (Homo sapiens, UniProt P01116, G12C)", "assay": "KRas degradation in NCI-H2030 cells by Western blot, normalized to GAPDH (data of Table 14)", "format": "cell-based", "design": "host or cells: NCI-H2030", "conditions": "for Percent Degradation at Indicated Concentration (μM): H2030; for Dmax: NCI-H2030", "protocol": "Cell Lines, Antibodies, and Reagents. NCI-H2030 (CRL-5914) and SW1573 (CRL-2170) cells were purchased from ATCC. Both cell lines are homozygous for the G12C mutation in KRas. NCI-H2030 cells were cultured in RPMI-1640 medium containing 1% penicillin-streptomycin and 10% fetal bovine serum (FBS). SW1573 cells were cultured in DMEM containing 1% penicillin-streptomycin and 10% FBS. The KRas detection antibody (Cat. No. LS-C175665) was purchased from LifeSpan Biosciences and was used at a dilution of 1:2000. GAPDH was detected using an antibody purchased from Cell Signaling Technology (Cat. No. 5174) and was diluted 1:3000. Secondary anti-mouse and anti-rabbit detection antibodies were purchased from Cell Signaling Technology (Cat. Nos. 7076 and 7074, respectively).\nCompound Treatment and Western Blotting of the Data of Table 14. Either NCI-H2030 or SW1573 cells were plated in 12-well plates and allowed to adhere overnight at 37° C. in an incubator containing 5% CO2. The following day, the medium was replaced with the appropriate medium lacking FBS to induce starvation. Cells were returned to the incubator for an additional 24 hours following media exchange. […] Cells were treated with VHL-based compounds for 24 hours and all other compounds for 72 hours. Following treatment, cells were lysed in RIPA buffer (Thermo Fisher Cat. No. 89900) containing phosphatase (Thermo Fisher Cat. No. 1861277) and protease (Thermo Fisher Cat. No. 78429) inhibitor cocktails. Lysates were cleared at 13,000 rpm for 15 minutes and supernatants were assayed for total protein concentration using the Pierce BCA assay system (Thermo Fisher Cat. No. 23225). For each sample, 10 μg total protein was resolved on a 12% Bis-Tris gel and then transferred to a nitrocellulose membrane. After blocking in 3% BSA in TBST (Tris-buffered Saline with 0.1% Tween-20) for 1 hour at room temperature, membranes were probed with the primary antibody (LS Bio Cat. No. LS-C175665) overnight at 4° C. After incubation with the secondary antibody, the following day membranes were visualized using the SuperSignal™ West Femto substrate (Thermo Fisher Cat. No. 34095). The KRas signal in each lane was normalized to GAPDH and percent degradation was either estimated as less than 25% by visual inspection (C in Table 13) or quantitated relative to the DMSO control lane using BIO-RAD Image Lab 5.2.1, and all data was plotted using GraphPad PRISM 6.07.\nDC50 is the half-maximal degradation concentration—i.e., the concentration at which 50% degradation is observed. DMax is the maximum degradation efficacy is achieved—i.e., the maximal degradation observed) degradation data.", "data": [{"smiles": "C=CC(=O)N1CCN(c2nc(NCCC(=O)N(C)CCOCCOCCOc3cc(-c4scnc4C)ccc3CNC(=O)[C@@H]3C[C@@H](O)CN3C(=O)[C@@H](c3cc(C)no3)C(C)C)nc3c(F)c(-c4cc(O)cc5ccccc45)c(Cl)cc23)CC1", "note": "[compound 341, (2S,4R)-N-(2-(2-(2-(2-(3-((4-(4-acryloylpiperazin-1-yl)-6-chloro-8-fluoro-7-(3-hydroxynaphthalen-1-yl)quinazolin-2-yl)amino)-N-methylpropanamido)ethoxy)ethoxy)ethoxy)-4-(4-methylthiazol-5-yl)benzyl)-4-hydroxy-1-((R)-3-methyl-2-(3-methylisoxazol-5-yl)butanoyl)pyrrolidine-2-carboxamide]", "values": [{"measurement": "Percent Degradation at Indicated Concentration (μM)", "setting": "0.3 μM", "value": "C (Percent Degradation: C ≤ 35)"}, {"measurement": "Percent Degradation at Indicated Concentration (μM)", "setting": "1 μM", "value": "C (Percent Degradation: C ≤ 35)"}, {"measurement": "Percent Degradation at Indicated Concentration (μM)", "setting": "3 μM", "value": "C (Percent Degradation: C ≤ 35)"}, {"measurement": "Dmax", "value": "≤ 35", "unit": "%"}]}, {"smiles": "C=CC(=O)N1CCN(c2nc(NCCC(=O)N(C)CCOCCOCCOCCNc3cccc4c3C(=O)N(C3CCC(=O)NC3=O)C4=O)nc3c(F)c(-c4c(O)cccc4F)c(Cl)cc23)CC1", "note": "[compound 113, 3-(((S)-4-(4-acryloylpiperazin-1-yl)-6-chloro-8-fluoro-7-(2-fluoro-6-hydroxyphenyl)quinazolin-2-yl)amino)-N-(2-(2-(2-(2-((2-(2,6-dioxopiperidin-3-yl)-1,3-dioxoisoindolin-4-yl)amino)ethoxy)ethoxy)ethoxy)ethyl)-N-methylpropanamide]", "values": [{"measurement": "Percent Degradation at Indicated Concentration (μM)", "setting": "0.3 μM", "value": "C (Percent Degradation: C ≤ 35)"}, {"measurement": "Percent Degradation at Indicated Concentration (μM)", "setting": "1 μM", "value": "C (Percent Degradation: C ≤ 35)"}, {"measurement": "Percent Degradation at Indicated Concentration (μM)", "setting": "3 μM", "value": "C (Percent Degradation: C ≤ 35)"}, {"measurement": "Dmax", "value": "≤ 35", "unit": "%"}]}, {"smiles": "Cc1ncsc1-c1ccc([C@H](C)NC(=O)[C@@H]2C[C@@H](O)CN2C(=O)[C@@H](NC(=O)COCCOCCOCCOCC/C=C/C(=O)N2CCN(c3nc(NCCC(=O)N(C)C)nc4c(F)c(-c5cc(O)cc6ccccc56)c(Cl)cc34)CC2)C(C)(C)C)cc1", "note": "[compound 366]", "values": [{"measurement": "Percent Degradation at Indicated Concentration (μM)", "setting": "0.3 μM", "value": "C (Percent Degradation: C ≤ 35)"}, {"measurement": "Percent Degradation at Indicated Concentration (μM)", "setting": "1 μM", "value": "C (Percent Degradation: C ≤ 35)"}, {"measurement": "Percent Degradation at Indicated Concentration (μM)", "setting": "3 μM", "value": "C (Percent Degradation: C ≤ 35)"}, {"measurement": "Dmax", "value": "≤ 35", "unit": "%"}]}, {"smiles": "Cc1ncsc1-c1ccc([C@H](C)NC(=O)[C@@H]2C[C@@H](O)CN2C(=O)[C@@H](NC(=O)COCCOCCOCCOCC/C=C/C(=O)N2CCN(c3ncnc4c(F)c(-c5cc(O)cc6ccccc56)c(Cl)cc34)CC2)C(C)(C)C)cc1", "note": "[compound 375, (2S,4R)-1-((2S,E)-2-(tert-butyl)-20-(4-(6-chloro-8-fluoro-7-(3-hydroxynaphthalen-1-yl)quinazolin-4-yl)piperazin-1-yl)-4,20-dioxo-6,9,12,15-tetraoxa-3-azaicos-18-enoyl)-4-hydroxy-N-((S)-1-(4-(4-methylthiazol-5-yl)phenyl)ethyl)pyrrolidine-2-carboxamide]", "values": [{"measurement": "Percent Degradation at Indicated Concentration (μM)", "setting": "0.3 μM", "value": "C (Percent Degradation: C ≤ 35)"}, {"measurement": "Percent Degradation at Indicated Concentration (μM)", "setting": "1 μM", "value": "C (Percent Degradation: C ≤ 35)"}, {"measurement": "Percent Degradation at Indicated Concentration (μM)", "setting": "3 μM", "value": "C (Percent Degradation: C ≤ 35)"}, {"measurement": "Dmax", "value": "≤ 35", "unit": "%"}]}, {"smiles": "CCC(=O)N1CCN(c2nc(NCCC(=O)N(C)CCOCCOCCOCCOCC(=O)N[C@H](C(=O)N3C[C@H](O)C[C@H]3C(=O)N[C@@H](C)c3ccc(-c4scnc4C)cc3)C(C)(C)C)nc3c(F)c(-c4cc(O)cc5ccccc45)c(Cl)cc23)CC1", "note": "[compound 189, (2S,4R)-1-((2S)-2-(tert-butyl)-21-((6-chloro-8-fluoro-7-(3-hydroxynaphthalen-1-yl)-4-(4-propionylpiperazin-1-yl)quinazolin-2-yl)amino)-18-methyl-4,19-dioxo-6,9,12,15-tetraoxa-3,18-diazahenicosanoyl)-4-hydroxy-N-((S)-1-(4-(4-methylthiazol-5-yl)phenyl)ethyl)pyrrolidine-2-carboxamide]", "values": [{"measurement": "Percent Degradation at Indicated Concentration (μM): 0.3", "setting": "H2030 cells, 0.3 μM", "value": "C (C ≤ 35)"}, {"measurement": "Percent Degradation at Indicated Concentration (μM): 1", "setting": "H2030 cells, 1 μM", "value": "C (C ≤ 35)"}, {"measurement": "Percent Degradation at Indicated Concentration (μM): 3", "setting": "H2030 cells, 3 μM", "value": "C (C ≤ 35)"}, {"measurement": "Dmax", "setting": "H2030 cells", "value": "≤ 35", "unit": "%"}]}, {"smiles": "CN(CCOCCOCCOCCOc1ccc2c(c1)CN(C1CCC(=O)NC1=O)C2=O)C(=O)CCNc1nc(N2CCN(C(N)=O)CC2)c2cc(Cl)c(-c3cc(O)cc4ccccc34)c(F)c2n1", "note": "(stereo not drawn) [compound 39, 4-(6-chloro-2-((1-((2-(2,6-dioxopiperidin-3-yl)-1-oxoisoindolin-5-yl)oxy)-12-methyl-13-oxo-3,6,9-trioxa-12-azapentadecan-15-yl)amino)-8-fluoro-7-(3-hydroxynaphthalen-1-yl)quinazolin-4-yl)piperazine-1-carboxamide]", "values": [{"measurement": "Percent Degradation at Indicated Concentration (μM)", "setting": "0.3 μM", "value": "C (Percent Degradation: C ≤ 35)"}, {"measurement": "Percent Degradation at Indicated Concentration (μM)", "setting": "1 μM", "value": "C (Percent Degradation: C ≤ 35)"}, {"measurement": "Percent Degradation at Indicated Concentration (μM)", "setting": "3 μM", "value": "C (Percent Degradation: C ≤ 35)"}, {"measurement": "Dmax", "value": "≤ 35", "unit": "%"}]}, {"smiles": "CCC(=O)N1CCN(c2nc(NCCC(=O)N(C)CCOCCOCCOc3ccc4c(c3)C(=O)N(C3CCC(=O)NC3=O)C4=O)nc3c(F)c(-c4cc(O)cc5ccccc45)c(Cl)cc23)CC1", "note": "(stereo not drawn) [compound 48, 3-((6-chloro-8-fluoro-7-(3-hydroxynaphthalen-1-yl)-4-(4-propionylpiperazin-1-yl)quinazolin-2-yl)amino)-N-(2-(2-(2-((2-(2,6-dioxopiperidin-3-yl)-1,3-dioxoisoindolin-5-yl)oxy)ethoxy)ethoxy)ethyl)-N-methylpropanamide]", "values": [{"measurement": "Percent Degradation at Indicated Concentration (μM): 0.3", "setting": "H2030 cells, 0.3 μM", "value": "C (C ≤ 35)"}, {"measurement": "Percent Degradation at Indicated Concentration (μM): 1", "setting": "H2030 cells, 1 μM", "value": "C (C ≤ 35)"}, {"measurement": "Percent Degradation at Indicated Concentration (μM): 3", "setting": "H2030 cells, 3 μM", "value": "C (C ≤ 35)"}, {"measurement": "Dmax", "setting": "H2030 cells", "value": "≤ 35", "unit": "%"}]}, {"smiles": "C=CC(=O)N1CCN(c2nc(NCCC(=O)N(C)CCOCCOCCOCCOCCNc3cccc4c3C(=O)N(C3CCC(=O)NC3=O)C4=O)nc3c(F)c(-c4c(O)cccc4F)c(Cl)cc23)CC1", "note": "[compound 116, 3-(((R)-4-(4-acryloylpiperazin-1-yl)-6-chloro-8-fluoro-7-(2-fluoro-6-hydroxyphenyl)quinazolin-2-yl)amino)-N-(14-((2-(2,6-dioxopiperidin-3-yl)-1,3-dioxoisoindolin-4-yl)amino)-3,6,9,12-tetraoxatetradecyl)-N-methylpropanamide]", "values": [{"measurement": "Percent Degradation at Indicated Concentration (μM)", "setting": "0.3 μM", "value": "C (Percent Degradation: C ≤ 35)"}, {"measurement": "Percent Degradation at Indicated Concentration (μM)", "setting": "1 μM", "value": "C (Percent Degradation: C ≤ 35)"}, {"measurement": "Percent Degradation at Indicated Concentration (μM)", "setting": "3 μM", "value": "C (Percent Degradation: C ≤ 35)"}, {"measurement": "Dmax", "value": "≤ 35", "unit": "%"}]}, {"smiles": "C=CC(=O)N1CCN(c2nc(NCCC(=O)N(C)CCOCCOCCOCCOCCOc3cc(-c4scnc4C)ccc3CNC(=O)[C@@H]3C[C@@H](O)CN3C(=O)[C@@H](c3cc(C)no3)C(C)C)nc3c(F)c(-c4cc(O)cc5ccccc45)c(Cl)cc23)CC1", "note": "[compound 345, (2S,4R)-N-(2-((18-((4-(4-acryloylpiperazin-1-yl)-6-chloro-8-fluoro-7-(3-hydroxynaphthalen-1-yl)quinazolin-2-yl)amino)-15-methyl-16-oxo-3,6,9,12-tetraoxa-15-azaoctadecyl)oxy)-4-(4-methylthiazol-5-yl)benzyl)-4-hydroxy-1-((R)-3-methyl-2-(3-methylisoxazol-5-yl)butanoyl)pyrrolidine-2-carboxamide]", "values": [{"measurement": "Percent Degradation at Indicated Concentration (μM): 0.3", "setting": "H2030 cells, 0.3 μM", "value": "C (C ≤ 35)"}, {"measurement": "Percent Degradation at Indicated Concentration (μM): 1", "setting": "H2030 cells, 1 μM", "value": "C (C ≤ 35)"}, {"measurement": "Percent Degradation at Indicated Concentration (μM): 3", "setting": "H2030 cells, 3 μM", "value": "C (C ≤ 35)"}, {"measurement": "Dmax", "setting": "H2030 cells", "value": "≤ 35", "unit": "%"}]}]}
